Reference: patent US20100267803A1, “Regulators Of Fat Metabolism As Anti-Cancer Targets” (The Research Foundation of State University Of New York, priority 2008, published 2010)

Tests used:
Type in all cases: cell-based, human
BT474 cells = experiment: Apoptosis by cleaved Caspase-3 or activated Bax immunofluorescence; settings: 48 h of shRNA or 20 μM GW9662
Protocol: Results are shown as percentage of control. (**P=0.03). (c) BT474 cells were transfected with luciferase (control), PBP and NR1D1 shRNAs and co-transfected with GFP. Green cells were counted at intervals and expressed as percentage of control. (Error bars are s.d from 3 individual experiments; *P<0.08, **P<0.03, ***P<0.005). (d) BT474 cells were transfected with luciferase (control), PBP or NR shRNAs for 48 h. Immunofluorescence was performed for cleaved Caspase-3 signal; cell nuclei were stained with Hoechst 33243. (e) Cells from […] were counted for cleaved Caspase-3 signal. (Error bars are s.d from 3 individual experiments; ***P<0.0003). (f) BT474 cells were transfected with luciferase (control) PBP, NR1D1 or PBP and NR1D1 shRNAs together and co-transfected with GFP. Transfected cells were counted at 24 h and 72 h and the 72 h-to-24 h ratio for each shRNA was calculated and expressed as % of the control shRNA (luciferase). (Error bars are s.d from 3 individual experiments; **P=0.01, ***P<0.002). (g) Cells from (f) were counted for cleaved Caspase-3 signal. (Error bars are s.d from 3 individual experiments; ***P<0.0001). (h) ERBB2 mRNA levels of BT474 cells transfected with luciferase (control), PBP or NR1D1 shRNAs for 48 h, analyzed by qRT-PCRs. (Error bars are s.d from 3 individual experiments; ***P=0.0001).
FIG. 3 PPAR. inhibition impacts NR1D1 expression and ERBB2-positive cells viability. (a) Cell counts of BT474, MDA-MB-361, MCF-7 and HMEC cells treated with vehicle, 10 and 20 μM of the PPAR. antagonist GW9662 for 72 hrs. Results represented as % of control (vehicle). (Error bars are s.d from 3 individual experiments; *P>0.2, **P<0.05, ***P<0.002). […] (c) Quantification of Caspase-3 signal. […] (d) aP2 and NR1D1 mRNA levels of BT474 cells treated with vehicle (control) and 20 μM of GW9662 for 48 h, analyzed by qRT-PCRs. […]
FIG. 5. (a) MDH1 and ME1 mRNA levels of BT474 cells treated with luciferase (control), PBP or NR1D1 shRNAs for 48 h, analyzed by qRT-PCRs. […] (d) Quantification of cleaved Caspase-3 signal from cells in (c). […]

BMAL1 reporter = experiment: BMAL1 luciferase reporter assay in BT474 cells; settings: 20 μM GW9662 for 48 h
Protocol: (§1) FIG. 2 NR1D1 and PBP are necessary for survival of ERBB2-positive cells. (a) PBP and NR1D1 mRNA levels of BT474 cells transfected with luciferase (control), PBP or NR1D1 shRNAs for 48 h, analyzed by qRT-PCRs. (Error bars are s.d from 3 experiments; ***P<0.003, **P=0.01, *P=0.02). (b) BMAL1 luciferase reporter activity of BT474 cells transfected with either empty vector (control), or NR1D1 shRNA for 48 h.
FIG. 3 PPAR. inhibition impacts NR1D1 expression and ERBB2-positive cells viability. (a) Cell counts of BT474, MDA-MB-361, MCF-7 and HMEC cells treated with vehicle, 10 and 20 μM of the PPAR. antagonist GW9662 for 72 hrs. Results represented as % of control (vehicle). (Error bars are s.d from 3 individual experiments; *P>0.2, **P<0.05, ***P<0.002). (b) BT474 cells treated with vehicle or 20 μM of GW9662 for 48 h were immuno-stained for cleaved Caspase-3. (c) Quantification of Caspase-3 signal. […] (d) aP2 and NR1D1 mRNA levels of BT474 cells treated with vehicle (control) and 20 μM of GW9662 for 48 h, analyzed by qRT-PCRs. […]
Reporter assays. […] Cells were lysed 48 h post-transfection and firefly (reporter) and renilla luciferase activities were measured using the Dual-Luciferase Reporter Assay kit (Promega) on a BioTek Synergy HT reader. The ratio of Firefly to Renilla luciferase activity was calculated and presented as percentage of control.

ACACA mRNA = experiment: qRT-PCR of ACACA mRNA in BT474 cells; settings: shRNA or 20 μM GW9662 for 48 h
Protocol: (§2) FIG. 4 NR1D1 and PBP coordinate fatty acid metabolism in breast cancer cells. (a) BT474, MDA-MB-361, MCF-7 and HMEC cells were stained with Oil-Red O lipid and hematoxylin nuclear stains. (b) Fat stores were quantified by BODIPY 493/503 lipid probe staining (Error bars are s.d from 3 individual experiments). (c) FASN, ACLY, ACACA and FADS2 mRNA levels of BT474 cells treated with luciferase (control), PBP or NR1D1 shRNAs, or with vehicle and 20 μM of GW9662 for 48 h, analyzed by qRT-PCRs. (Error bars are s.d from 3 experiments; ***P<0.001, **P=0.005) (d) BT474 cells were transfected with FASN, ACLY and ACACA shRNAs and co-transfected with GFP. Transfected cells were counted at 24 h and 72 h and the 72h-to-24 h ratio for each shRNA was calculated and expressed as % of the control shRNA (luciferase). (Error bars are s.d from 3 individual experiments; **P<0.01, ***P<0.002). (e) BODIPY images and (f) quantification of BT474 cells transfected with luciferase (control), PBP or NR1D1 shRNAs and co-transfected with DsRed (Error bars are s.d from 3 individual experiments; ***P<0.03). Arrows indicate transfected cells.
(§3) Cell viability—apoptosis assays. […] At least 30 fields were imaged per single experiment. […] Immunoblotting. […] PCR reaction was run using standard conditions.

ACLY mRNA = experiment: qRT-PCR of ACLY mRNA in BT474 cells; settings: shRNA or 20 μM GW9662 for 48 h
Protocol: as §2, §3

FADS2 mRNA = experiment: qRT-PCR of FADS2 mRNA in BT474 cells; settings: shRNA or 20 μM GW9662 for 48 h
Protocol: as §2, §3

aP2 (FABP4) mRNA = experiment: qRT-PCR of aP2 mRNA in BT474 cells; settings: 20 μM GW9662 for 48 h
Protocol: (§4) FIG. 3 PPAR. inhibition impacts NR1D1 expression and ERBB2-positive cells viability. (a) Cell counts of BT474, MDA-MB-361, MCF-7 and HMEC cells treated with vehicle, 10 and 20 μM of the PPAR. antagonist GW9662 for 72 hrs. Results represented as % of control (vehicle). (Error bars are s.d from 3 individual experiments; *P>0.2, **P<0.05, ***P<0.002). (b) BT474 cells treated with vehicle or 20 μM of GW9662 for 48 h were immuno-stained for cleaved Caspase-3. (c) Quantification of Caspase-3 signal. (Error bars are s.d from 3 individual experiments; ***P=0.002). (d) aP2 and NR1D1 mRNA levels of BT474 cells treated with vehicle (control) and 20 μM of GW9662 for 48 h, analyzed by qRT-PCRs. (Error bars are s.d from 3 experiments; ***P<0.0006. (e) BMAL1-luc activity of BT474 cells treated with vehicle or 20 μM of GW9662 for 48 h. (Error bars are s.d from 3 individual experiments; **P=0.03). (f) Total ERBB2 western blot of BT474 cells treated with vehicle or 20 μM GW9662 for 72h. GAPDH was used as control.
as §3

NR1D1 mRNA = experiment: qRT-PCR of NR1D1 mRNA in BT474 cells; settings: 20 μM GW9662 for 48 h
Protocol: as §1
FIG. 3 PPAR. inhibition impacts NR1D1 expression and ERBB2-positive cells viability. (a) Cell counts of BT474, MDA-MB-361, MCF-7 and HMEC cells treated with vehicle, 10 and 20 μM of the PPAR. antagonist GW9662 for 72 hrs. Results represented as % of control (vehicle). (Error bars are s.d from 3 individual experiments; *P>0.2, **P<0.05, ***P<0.002). (b) BT474 cells treated with vehicle or 20 μM of GW9662 for 48 h were immuno-stained for cleaved Caspase-3. (c) Quantification of Caspase-3 signal. (Error bars are s.d from 3 individual experiments; ***P=0.002). (d) aP2 and NR1D1 mRNA levels of BT474 cells treated with vehicle (control) and 20 μM of GW9662 for 48 h, analyzed by qRT-PCRs. […]

ERBB2 = ERBB2 western blot of BT474 cells
Protocol: as §4, §3

FASN mRNA = experiment: qRT-PCR of FASN mRNA in BT474 cells; settings: shRNA or 20 μM GW9662 for 48 h
Protocol: as §2, §3

[1] = tested on: BT474, MDA-MB-361, MCF-7 and HMEC cells; experiment: Cell counts after PPARγ antagonist treatment; settings: 10 and 20 μM for 72 hrs; % of vehicle
Protocol: as §4, §3

O=C(Nc1ccccc1)c1cc([N+](=O)[O-])ccc1Cl [GW9662, reference compound]
apoptosis (BT474 cells): apoptosis of BT474 cells
BMAL1 reporter activity (BMAL1 reporter): increased BMAL1 reporter activity
ACACA transcript level (ACACA mRNA): reduced
ACLY transcript level (ACLY mRNA): reduced
FADS2 transcript levels (FADS2 mRNA): downregulated
mRNA levels of aP2 (aP2 (FABP4) mRNA): decreased mRNA levels of aP2
NR1D1 message levels (NR1D1 mRNA): dramatically decreased
ERBB2 protein levels (ERBB2; 20 μM GW9662 for 72h): Neither ERBB2 protein levels (FIG. 3f), nor ERBB2 phosphorylation (FIG. S3d) were significantly affected
ERBB2 phosphorylation (ERBB2; GW9662 treatment): Neither ERBB2 protein levels (FIG. 3f), nor ERBB2 phosphorylation (FIG. S3d) were significantly affected
FASN transcript level (FASN mRNA): reduced
sensitivity of cells to drug treatment (cell counts) [1]: ERBB2-positive cells were more sensitive to drug treatment than MCF-7 and HMEC cells
